Like-named read-outs stand apart in the source and are kept apart here.
Columns and labels:
young male CD1 mice [1] = conditions: mean±SEM, scored during 6 min
Experimental: (A) In the forced swim test, young male CD1 mice, singly housed, were used. Mice were treated i.p. with saline (control) or 25 mg/kg compounds (I) or (II) for 7 days once-a-day and tested at 8th day. In the reference group, mice were treated i.p. with 10 mg/kg Imipramine 30 min prior the swimming test. Forced swim test was done in a glass cylinder 17 cm diameter, water height 13 cm (7 cm to the edge of a cylinder) filled with water at ambient temperature. Animals were scored during 6 min. The latency of the first floating episode was accepted as a measure of forced swim behavior. Statistical analysis was done using ANOVA and Mann-Whitney test as a post-hoc analysis.

Stressed mice = conditions: mean±SEM; stressed mice from Example 2 (i.p. 25 mg/kg for 7 days prior stress); scored during 5 min
Experimental: (B) In the chronic stress depression model, young male CD1 mice, singly housed, were used. […] Stress procedure was used for 10 days.
Effect of the treatment of anxiety with compounds of the invention was assessed in rodents in light/dark transition test. Stressed mice from the Example 2 were tested in a dark/light box as described by Crawley et al., Pharmacol Biochem Behav 13, 167-70 (1980). Animals were scored during 5 min for (i) total time spent in light box and (ii) number of exits. […] Data are presented in Table 3 as mean±SEM of (i) total time spent in light box and (ii) number of exits.

Rats = conditions: rats pretreated i.p. 25 mg/kg for 7 days once-a-day; at day 8, 10 mg/kg caffeine
Experimental: Effect of the treatment of sleep disorder (insomnia) with compound II of the present invention was assessed in caffeine-induced model of insomnia. Rats were treated for 7 days once-a-day with i.p. 25 mg/kg compound II or saline (control).

[2] = tested on: rats raised in social isolation (ISO); conditions: mean±SEM; socially isolated rats, i.p. 25 mg/kg for 7 days once-a-day; 80 dB prepulse, 110 dB pulse, prepulse latency 100 milliseconds
Experimental: Rats were treated for 7 days once-a-day with i.p. 25 mg/kg compound II or saline (control).

[3] = tested on: mice with seizures induced by pentylenetetrazol; conditions: i.p. 10 mg/kg for 7 days once-a-day, pentylenetetrazol administered
Experimental: Effect of the treatment of epilepsy with compounds of the invention was assessed in mice with seizures induced by pentylenetetrazol. Loscher et al., Epilepsy Res 1991, 8:171-189. Mice were treated for 7 days once-a-day with i.p. 10 mg/kg compound II or saline (control). Pentylenetetrazol was administered.

young male CD1 mice [4] = conditions: mean±SEM, n=20
Experimental: (B) In the chronic stress depression model, young male CD1 mice, singly housed, were used. […] Stress procedure was used for 10 days. In the reference group, mice received Imipramine orally 8 mg/kg per day for 7 days prior the stress and then in a course on entire 10-days-stress-procedure. Animals (n=20 per group) were tested on a sucrose preference at 10th day of the stress procedure. Statistical analysis was done using ANOVA and Mann-Whitney test as a post-hoc analysis. Data are presented in Table 2 as mean±SEM of a percentage of sucrose preference.

[5] = i.p. 25 mg/kg for 7 days once-a-day, tested at 8th day

Q: With `C[N+](C)(C)CCO.O=C([O-])CCC(=O)O` [Compound (I), monocholine salt of succinic acid] as the molecule, how does the “Latency of the first floating episode” value (young male CD1 mice [1]; [5]) read?
A: 117 ± 18 s

Q: How did the Number of exits (Stressed mice) turn out when `C[N+](C)(C)CCO.C[N+](C)(C)CCO.O=C([O-])CCC(=O)[O-]` [Compound (II), dicholine salt of succinic acid] was run?
A: 4.8 ± 0.6

Q: What about the “Time (total time spent in light box)” value (Stressed mice) of the same molecule?
A: 250 ± 11 s

Q: What about the “sleep onset latency (SOL) after caffeine as compared to vehicle” value (Rats) of the same molecule?
A: caffeine did not prolonged SOL

Q: And the Prepulse inhibition [2]?
A: 51 ± 9 %

Q: And the “seizures as compared to control” value [3]?
A: significantly decreases seizures

Q: And the “Latency of the first floating episode” value (young male CD1 mice [1]; [5])?
A: 140 ± 11 s

Q: What about the Sucrose preference (young male CD1 mice [4]; i.p. 25 mg/kg for 7 days once-a-day prior the onset of stress, tested at 10th day of stress) of the same molecule?
A: 72 ± 3 %

Q: How did the “Latency of the first floating episode” value (young male CD1 mice [1]; reference group, i.p. 10 mg/kg 30 min prior the swimming test) turn out when `CN(C)CCCN1c2ccccc2CCc2ccccc21` [Imipramine, reference compound] was run?
A: 60 ± 26 s

Q: And the Sucrose preference (young male CD1 mice [4]; reference group, orally 8 mg/kg per day for 7 days prior the stress and during 10-days stress, tested at 10th day)?
A: 75 ± 4 %
